Assay results published in publication PMC2651632 (Biochemistry, 2008).

Biological target: T1, reconstituted ATase (ATN6-ATC3 complex) (Escherichia coli, UniProt P30870)
T1 sequence (P30870 1-608): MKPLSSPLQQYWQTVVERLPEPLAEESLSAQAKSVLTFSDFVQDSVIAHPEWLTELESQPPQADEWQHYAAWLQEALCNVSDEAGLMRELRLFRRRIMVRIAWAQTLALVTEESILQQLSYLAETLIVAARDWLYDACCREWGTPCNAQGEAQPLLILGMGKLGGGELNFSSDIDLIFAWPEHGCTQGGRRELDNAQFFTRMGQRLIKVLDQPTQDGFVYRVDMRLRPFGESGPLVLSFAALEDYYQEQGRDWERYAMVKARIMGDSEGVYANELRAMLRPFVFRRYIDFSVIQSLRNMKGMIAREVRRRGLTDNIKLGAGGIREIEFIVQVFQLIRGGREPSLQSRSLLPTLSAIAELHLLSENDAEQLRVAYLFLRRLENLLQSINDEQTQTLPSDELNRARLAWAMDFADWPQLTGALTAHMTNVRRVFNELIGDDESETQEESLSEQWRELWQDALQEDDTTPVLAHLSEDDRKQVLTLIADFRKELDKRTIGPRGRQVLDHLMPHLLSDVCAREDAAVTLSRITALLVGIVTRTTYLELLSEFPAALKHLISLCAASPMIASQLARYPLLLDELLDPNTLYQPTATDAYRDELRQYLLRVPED
T1 sequence (P30870 609-946 partner): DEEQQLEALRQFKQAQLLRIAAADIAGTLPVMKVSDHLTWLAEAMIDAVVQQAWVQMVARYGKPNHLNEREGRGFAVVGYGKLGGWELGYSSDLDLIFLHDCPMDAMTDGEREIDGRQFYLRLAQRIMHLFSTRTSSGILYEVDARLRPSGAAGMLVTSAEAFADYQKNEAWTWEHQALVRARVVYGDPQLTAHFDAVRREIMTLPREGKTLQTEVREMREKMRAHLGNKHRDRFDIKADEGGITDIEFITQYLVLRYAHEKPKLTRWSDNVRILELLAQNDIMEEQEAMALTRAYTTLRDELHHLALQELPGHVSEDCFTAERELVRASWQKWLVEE
Assay: initial rate of GS adenylylation, […] incorporation from [alpha-32P]ATP
Type: biochemical

EC50: ~7 mM
Structure (SMILES): NC(=O)CC[C@H](N)C(=O)O [glutamine]
